In patent publication US5364876A, “Omega-[2-(alkyl)phenyl]-2-aminoalkanoic acids as antagonists of excitatory amino acid receptors” (Guilford Pharmaceuticals Inc., priority 1992, dated 1994):
Values joined by “and” are separate entries in the source; they are usually repeats but may differ in a detail not shown here. Equal entries are not always repeated.

Experiments:
kainate receptors = conditions: U.S. Pat. No. 4,657,899, Table I; cited from earlier work
NMDA receptors = conditions: U.S. Pat. No. 4,657,899; cited from earlier work
[1] = biological target: T1, strychnine insensitive glycine site (Rattus norvegicus, UniProt P35439); assay: Strychnine insensitive glycine binding; conditions: read-out: Receptor Potency (Ki), Glycine
T1 construct: from tissue

AMPA receptors = assay: [3H]AMPA displacement binding; conditions: for Ki: [3H]AMPA displacement, read-out: Receptor Potency (Ki), AMPA
[2] = biological target: KA receptors (kainic acid-induced currents); assay: Inhibition of KA-induced currents in rat brain mRNA-injected Xenopus oocytes; format: cell-based; conditions: Xenopus oocytes injected with rat brain mRNA; IC50 converted to Ki by Cheng-Prusoff equation
Experimental: (§1) Defolliculated oocytes obtained from Xenopus laevis females were injected with 30-75 ng of poly (A+) mRNA obtained from 21-day old male Sprague-Dawley rats. Oocytes were placed individually in […] of antibiotic-supplemented modified Barthes solution (MBS, containing in mM: NaCl, 88; KCl, 1.0; NaHCO3, 2.4; HEPES, 10;MgSO4, 0.82; Ca(NO3)2, 0.33) in 96-well sterile plates and cultured for 48-120 hours prior to experimentation. Oocytes were inspected every 24 hours at which time the bathing solution is replaced with fresh MBS.
(§2) For electrophysiological studies, oocytes were positioned in a small recording chamber ([…]) and superfused with antibiotic free MBS supplemented with CaCl2 (final concentration=1.4 mM). Oocytes are impaled with a single glass microelectrode, voltage clamped at -60 to -70 mV, and perfused by gravity feed at a rate of […] at room temperature. […] Antagonists are coperfused with agonists. MBS used in NMDA assays were prepared from "glycine-free", deionized water
(§3) Potencies to inhibit kainic acid-, AMPA- and […] currents are determined from concentration-response curves. IC50 values are converted to Ki values for comparison purposes using the Cheng-Prusoff equation.

GLU (NMDA receptors) = assay: GLU receptor ligand binding (NMDA receptors); conditions: read-out: Receptor Potency (Ki), GLU
KA receptor = KA receptor ligand binding; set-up: species or system rat
[3] = biological target: AMPA receptors (AMPA-induced currents); assay: Inhibition of AMPA-induced currents in rat brain mRNA-injected Xenopus oocytes; format: cell-based; conditions: Xenopus oocytes injected with rat brain mRNA; IC50 converted to Ki by Cheng-Prusoff equation
Experimental: as §1, §2, §3

[4] = biological target: CNQX labeled non-NMDA receptors; assay: CNQX-labeled non-NMDA receptor binding; conditions: read-out: Receptor Potency (Ki), CNQX

| SMILES | binding affinity for kainate receptors (kainate receptors) | NMDA antagonist activity (NMDA receptors) | Ki [1] | Ki, inhibition of KA-induced currents [2] | Ki (GLU (NMDA receptors)) | further results |
| --- | --- | --- | --- | --- | --- | --- |
| NC(Cc1ccccc1CCP(=O)(O)O)C(=O)O (stereo not drawn) [2-amino-3-[2-(2-phosphonoethyl)phenyl]propanoic acid] | very low binding affinity | antagonists of NMDA | – | – | – | – |
| NC(Cc1ccccc1CCCP(=O)(O)O)C(=O)O (stereo not drawn) [2-amino-3-[2-(3-phosphonopropyl)phenyl]propanoic acid] | very low binding affinity | antagonists of NMDA | – | – | – | – |
| NC(Cc1ccccc1CP(=O)(O)O)C(=O)O (stereo not drawn) [2-amino-3-[2-phosphonomethylphenyl]propanoic acid] | very low binding affinity | antagonists of NMDA | – | – | – | – |
| NC(CCCc1ccccc1CP(=O)(O)O)C(=O)O (stereo not drawn) [2-amino-5-[2-phosphonomethylphenyl]pentanoic acid] | very low binding affinity | antagonists of NMDA | – | – | – | – |
| NC(Cc1cc(F)ccc1CCC(=O)O)C(=O)O (stereo not drawn) [Example 5a] | – | – | 41 µM | > 50 µM | > 300 µM | Ki (AMPA receptors): 168 µM; Receptor Potency (Ki), KA (KA receptor): 475 µM |
| NC(Cc1cc(Cl)ccc1CCC(=O)O)C(=O)O (stereo not drawn) [Example 5b] | – | – | 9 µM | 32 µM | > 300 µM | selectivity for AMPA versus NMDA receptors (AMPA receptors; Ki GLU >300 μM versus Ki AMPA 51 μM): at least six-fold selective; Ki (AMPA receptors): 51 µM; Ki [3]: 96 µM; Receptor Potency (Ki), KA (KA receptor): 506 µM |
| Cc1cc(C)c(CCC(=O)O)c(C[C@H](N)C(=O)O)c1 [Example 5c, 3,5-Dimethyl-2-(2'-carboxyethyl)phenylalanine] | – | – | 211 µM | 84 µM | > 1000 µM | – |
| Cc1ccc(CCCC(=O)O)c(C[C@H](N)C(=O)O)c1 [Example 26, 5-Methyl-2-(3'-carboxypropyl) phenylalanine] | – | – | 2400 µM | 13 µM and 13.3 µM | > 1000 µM | Ki [4]: 8.4 µM |
